Test results from ChEMBL document CHEMBL1201862, “PubChem BioAssay data set” (2004).
One block for each molecule: values may come before it. Calls of active or inactive are those of the source.

Columns and labels:
Cytochrome P450 2C19 = Cytochrome P450 2C19 (Homo sapiens, UniProt P33261); experiment: qHTS Assay for Inhibitors and Substrates of Cytochrome P450 2C19. [Related pubchem assays: 410 ]; assay type: ADME; details: read-out: Potency
Cytochrome P450 2C9 = Cytochrome P450 2C9 (Homo sapiens, UniProt P11712); details: Potency
Chain of Cytochrome P450 2C9 (P11712 whole entry): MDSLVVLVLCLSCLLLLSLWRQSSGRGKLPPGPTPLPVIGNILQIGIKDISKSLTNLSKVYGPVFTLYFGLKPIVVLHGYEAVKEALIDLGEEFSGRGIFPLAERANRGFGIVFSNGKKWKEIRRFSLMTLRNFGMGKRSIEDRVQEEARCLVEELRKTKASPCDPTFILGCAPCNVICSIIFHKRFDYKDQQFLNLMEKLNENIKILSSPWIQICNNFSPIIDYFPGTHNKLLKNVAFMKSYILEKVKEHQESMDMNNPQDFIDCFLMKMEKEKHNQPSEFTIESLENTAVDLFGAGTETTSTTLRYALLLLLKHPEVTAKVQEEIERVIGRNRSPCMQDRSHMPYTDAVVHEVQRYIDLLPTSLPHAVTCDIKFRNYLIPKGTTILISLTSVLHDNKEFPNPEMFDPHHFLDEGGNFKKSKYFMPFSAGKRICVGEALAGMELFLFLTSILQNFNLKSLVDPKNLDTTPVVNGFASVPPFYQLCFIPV

[1] = target: G2/mitotic-specific cyclin-B1 (Homo sapiens, UniProt P14635); experiment: G2/M cell cycle arrest in HeLa, late-stage follow-up, mechanism study for Wee1 degradation inhibitor project, FACS, panel member Cyclin B Degradation (AID 2088)
Wee1-like protein kinase = Wee1-like protein kinase (Homo sapiens, UniProt P30291); experiment: G2/M cell cycle arrest in HeLa, late-stage follow-up, mechanism study for Wee1 degradation inhibitor project, FACS, panel member Wee1 Degradation (AID 2088)
[2] = target: T1, Eukaryotic translation initiation factor 2-alpha kinase 3 (Homo sapiens, UniProt Q9NZJ5); experiment: Dose response cell-based high-throughput screening assay to measure PERK inhibition. [Related pubchem assays: 1416 ]; assay type: functional
T1 sequence (Q9NZJ5 whole entry): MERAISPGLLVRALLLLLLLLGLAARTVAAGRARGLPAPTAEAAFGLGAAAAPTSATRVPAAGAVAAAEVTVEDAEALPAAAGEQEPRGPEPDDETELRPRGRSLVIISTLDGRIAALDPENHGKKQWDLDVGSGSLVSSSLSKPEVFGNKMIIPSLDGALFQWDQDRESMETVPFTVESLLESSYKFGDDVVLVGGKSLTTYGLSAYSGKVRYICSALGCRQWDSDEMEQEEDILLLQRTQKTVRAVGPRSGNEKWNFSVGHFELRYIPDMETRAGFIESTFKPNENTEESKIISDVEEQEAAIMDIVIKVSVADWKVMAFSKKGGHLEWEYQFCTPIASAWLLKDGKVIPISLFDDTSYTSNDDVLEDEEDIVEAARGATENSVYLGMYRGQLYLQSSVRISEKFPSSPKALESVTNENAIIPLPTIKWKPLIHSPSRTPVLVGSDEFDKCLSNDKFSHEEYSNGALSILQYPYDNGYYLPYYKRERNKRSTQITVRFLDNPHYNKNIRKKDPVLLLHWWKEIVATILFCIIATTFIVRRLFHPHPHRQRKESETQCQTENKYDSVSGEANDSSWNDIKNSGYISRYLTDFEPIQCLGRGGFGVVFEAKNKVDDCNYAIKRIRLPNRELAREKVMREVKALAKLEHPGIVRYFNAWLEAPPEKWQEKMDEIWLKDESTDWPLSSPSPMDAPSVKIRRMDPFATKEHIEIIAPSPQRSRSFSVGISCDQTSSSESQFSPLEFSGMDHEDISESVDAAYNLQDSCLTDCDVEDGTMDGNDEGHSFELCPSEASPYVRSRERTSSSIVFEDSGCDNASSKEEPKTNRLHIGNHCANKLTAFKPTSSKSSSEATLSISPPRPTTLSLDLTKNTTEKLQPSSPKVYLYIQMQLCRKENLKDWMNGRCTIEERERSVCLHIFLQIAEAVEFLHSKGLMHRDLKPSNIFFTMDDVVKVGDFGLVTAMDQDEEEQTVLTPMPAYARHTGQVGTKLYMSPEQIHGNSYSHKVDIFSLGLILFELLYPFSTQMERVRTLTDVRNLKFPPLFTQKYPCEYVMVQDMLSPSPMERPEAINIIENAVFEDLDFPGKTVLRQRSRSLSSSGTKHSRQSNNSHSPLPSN

[3] = Luminescence Cell-Based Dose Confirmation HTS to Identify Inhibitors of Platelet Dense Granule Release. [Related pubchem assays: 1663 (Primary HTS), 1678 (Summary of Project)]; assay type: functional
[4] = target: T1, Eukaryotic translation initiation factor 2-alpha kinase 3; experiment: Counterscreen assay for PERK inhibitors: Dose response cell-based high throughput screening assay to measure inhibition of PERK at 6 hours. [Related pubchem assays: 1522, 1416 ]; assay type: functional
[5] = target: Luciferin 4-monooxygenase (Photinus pyralis, UniProt P08659); experiment: firefly luciferase enzyme inhibitors, dose response, biochemical, luminescence (AID 1891)
[6] = HEp-2 cell cytotoxicity, dose response, cytotoxicity control for RSV inhibitor project, HTS (AID 2410); assay type: functional; details: human respiratory syncytial virus
[7] = Luminescence Cell-Based Dose Retest to Confirm Inhibitors of Cancer Stem Cells. [Related pubchem assays (depositor defined):AID2717, AID2721]; assay type: functional; details: Homo sapiens
Streptococcus = experiment: Group A Streptococcus viability loss, dose response, counter-screen for streptokinase expression inhibitor project, luminescence, BacTiterGlo (AID 1915); assay type: functional, organism-based;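 also: potency for reduction of bacterial viability or growth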
X-box-binding protein 1 = X-box-binding protein 1 (Homo sapiens, UniProt P17861); assay type: functional, Cricetulus griseus;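 also: confirmatory dose-response counter-screen serving a CHOP assay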
[8] = system: Streptococcus sp. 'group A'; experiment: growth inhibition of control SK(-) GAS strain, dose response, counter-screen for streptokinase expression inhibitor project, luminescence, kanamycin, BacTiterGlo, confirmation (AID 1900); assay type: functional, organism-based
[9] = target: Protein phosphatase methylesterase 1 (Homo sapiens, UniProt Q9Y570); experiment: PME-1 inhibitor potency by in-gel ABPP, dose response, selectivity assay for PME-1 inhibitor project, cell lysate, mouse brain cytosol, FP-rhodamine, panel member PME-1 Assay Panel member description: Inhibition of endogenously expressed PME-1 (AID 2366)
Chain of Protein phosphatase methylesterase 1 (Q9Y570 whole entry): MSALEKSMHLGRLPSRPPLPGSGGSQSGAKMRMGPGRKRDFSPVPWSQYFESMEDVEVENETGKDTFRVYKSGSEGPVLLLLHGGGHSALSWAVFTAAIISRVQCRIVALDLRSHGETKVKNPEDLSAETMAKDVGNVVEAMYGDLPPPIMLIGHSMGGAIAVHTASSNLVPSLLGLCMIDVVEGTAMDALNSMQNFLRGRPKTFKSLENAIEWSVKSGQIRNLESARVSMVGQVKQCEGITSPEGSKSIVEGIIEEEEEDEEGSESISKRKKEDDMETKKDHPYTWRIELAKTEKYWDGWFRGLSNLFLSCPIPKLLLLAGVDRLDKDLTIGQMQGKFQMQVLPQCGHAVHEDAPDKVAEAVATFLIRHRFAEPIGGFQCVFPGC

[10] = target: T2, Dual specificity protein phosphatase 3 (Homo sapiens, UniProt P51452); experiment: SAR VHR1 Fluorescent Assay for In Vitro dose response studies Set 2. [Related pubchem assays (depositor defined):AID1654, AID1661, AID1878]; assay type: functional
T2 sequence (P51452 whole entry): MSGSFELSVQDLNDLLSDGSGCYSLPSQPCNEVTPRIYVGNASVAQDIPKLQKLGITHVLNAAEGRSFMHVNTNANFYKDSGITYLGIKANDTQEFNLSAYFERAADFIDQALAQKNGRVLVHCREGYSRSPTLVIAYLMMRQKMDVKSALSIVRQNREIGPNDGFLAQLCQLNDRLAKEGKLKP

[11] = target: T3, Tyrosine-protein phosphatase non-receptor type 7 (Homo sapiens, UniProt P35236); experiment: SAR analysis of chemical inhibitors of HePTP using a Fluorescent assay - Set 2. [Related pubchem assays (depositor defined):AID1059, AID1077, AID1661, AID2085, AID521]; assay type: functional
T3 sequence (P35236 whole entry): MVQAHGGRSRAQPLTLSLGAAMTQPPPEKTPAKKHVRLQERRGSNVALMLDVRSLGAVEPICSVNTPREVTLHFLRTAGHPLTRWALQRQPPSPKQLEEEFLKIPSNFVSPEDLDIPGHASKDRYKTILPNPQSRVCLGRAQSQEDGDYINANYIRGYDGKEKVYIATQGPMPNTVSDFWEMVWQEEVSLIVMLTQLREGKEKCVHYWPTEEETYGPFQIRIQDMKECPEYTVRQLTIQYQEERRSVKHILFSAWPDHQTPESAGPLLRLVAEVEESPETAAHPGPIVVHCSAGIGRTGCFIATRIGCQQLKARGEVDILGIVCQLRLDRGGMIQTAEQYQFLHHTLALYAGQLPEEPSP

[12] = target: Alkaline phosphatase, placental type (Homo sapiens, UniProt P05187); experiment: PLAP enzyme inhibitors, confirmation, biochemical, luminescence (AID 1512); assay type: functional
Chain of Alkaline phosphatase, placental type (P05187 whole entry): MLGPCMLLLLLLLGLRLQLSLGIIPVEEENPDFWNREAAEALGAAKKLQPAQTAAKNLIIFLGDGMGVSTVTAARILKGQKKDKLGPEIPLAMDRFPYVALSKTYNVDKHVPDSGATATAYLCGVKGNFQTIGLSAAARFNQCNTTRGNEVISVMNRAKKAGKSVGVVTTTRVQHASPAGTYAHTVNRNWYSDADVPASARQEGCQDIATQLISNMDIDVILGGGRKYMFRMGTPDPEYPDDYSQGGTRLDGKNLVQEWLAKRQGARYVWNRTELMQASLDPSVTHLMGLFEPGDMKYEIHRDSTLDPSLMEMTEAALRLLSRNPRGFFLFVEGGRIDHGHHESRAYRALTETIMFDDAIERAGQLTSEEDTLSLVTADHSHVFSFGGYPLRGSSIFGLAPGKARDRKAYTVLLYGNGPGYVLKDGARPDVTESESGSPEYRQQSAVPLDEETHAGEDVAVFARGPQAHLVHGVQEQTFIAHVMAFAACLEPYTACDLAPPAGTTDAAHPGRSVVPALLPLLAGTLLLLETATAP

[13] = target: Metabotropic glutamate receptor 4 (Rattus norvegicus, UniProt P31423); experiment: Modulation of the Metabotropic Glutamate Receptor mGluR4: Rat PAM Potency. [Related pubchem assays (depositor defined):AID2437, AID2807]; assay type: functional
Chain of Metabotropic glutamate receptor 4 (Rattus norvegicus, UniProt P31423) (P31423 whole entry): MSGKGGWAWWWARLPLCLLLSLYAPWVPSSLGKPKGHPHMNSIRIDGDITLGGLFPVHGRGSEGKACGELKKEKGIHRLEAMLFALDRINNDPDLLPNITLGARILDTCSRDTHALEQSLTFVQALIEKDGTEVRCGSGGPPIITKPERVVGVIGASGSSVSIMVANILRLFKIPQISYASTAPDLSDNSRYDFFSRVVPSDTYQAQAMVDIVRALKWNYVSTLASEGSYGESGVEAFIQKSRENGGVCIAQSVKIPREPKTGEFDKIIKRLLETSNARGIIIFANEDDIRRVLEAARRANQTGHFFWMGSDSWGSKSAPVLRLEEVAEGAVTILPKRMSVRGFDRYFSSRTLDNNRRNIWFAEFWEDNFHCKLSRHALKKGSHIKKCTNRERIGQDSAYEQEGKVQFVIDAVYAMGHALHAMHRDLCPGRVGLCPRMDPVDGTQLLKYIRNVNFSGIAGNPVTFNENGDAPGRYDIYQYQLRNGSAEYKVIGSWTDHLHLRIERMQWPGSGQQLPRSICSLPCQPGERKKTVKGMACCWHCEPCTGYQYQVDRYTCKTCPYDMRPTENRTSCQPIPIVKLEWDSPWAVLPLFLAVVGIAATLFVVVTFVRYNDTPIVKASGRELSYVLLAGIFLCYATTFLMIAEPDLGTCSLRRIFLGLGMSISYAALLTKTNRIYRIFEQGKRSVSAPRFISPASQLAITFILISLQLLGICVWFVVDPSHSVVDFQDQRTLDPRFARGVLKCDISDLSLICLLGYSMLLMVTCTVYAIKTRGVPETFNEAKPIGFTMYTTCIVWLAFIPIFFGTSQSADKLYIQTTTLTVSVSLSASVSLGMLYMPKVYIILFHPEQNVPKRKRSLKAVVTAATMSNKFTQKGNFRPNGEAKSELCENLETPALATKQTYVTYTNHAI

[14] = target: Metabotropic glutamate receptor 4 (Homo sapiens, UniProt Q14833); experiment: Modulation of the Metabotropic Glutamate Receptor mGluR4: Potency at human mGluR4. Modulation of intracellular Ca2+ using Fluo-4, AM, in CHO expressing recombinant receptor [Related pubchem assays (depositor defined):AID2437, AID2807]; assay type: functional, cell-based
Chain of Metabotropic glutamate receptor 4 (Homo sapiens, UniProt Q14833) (Q14833 whole entry): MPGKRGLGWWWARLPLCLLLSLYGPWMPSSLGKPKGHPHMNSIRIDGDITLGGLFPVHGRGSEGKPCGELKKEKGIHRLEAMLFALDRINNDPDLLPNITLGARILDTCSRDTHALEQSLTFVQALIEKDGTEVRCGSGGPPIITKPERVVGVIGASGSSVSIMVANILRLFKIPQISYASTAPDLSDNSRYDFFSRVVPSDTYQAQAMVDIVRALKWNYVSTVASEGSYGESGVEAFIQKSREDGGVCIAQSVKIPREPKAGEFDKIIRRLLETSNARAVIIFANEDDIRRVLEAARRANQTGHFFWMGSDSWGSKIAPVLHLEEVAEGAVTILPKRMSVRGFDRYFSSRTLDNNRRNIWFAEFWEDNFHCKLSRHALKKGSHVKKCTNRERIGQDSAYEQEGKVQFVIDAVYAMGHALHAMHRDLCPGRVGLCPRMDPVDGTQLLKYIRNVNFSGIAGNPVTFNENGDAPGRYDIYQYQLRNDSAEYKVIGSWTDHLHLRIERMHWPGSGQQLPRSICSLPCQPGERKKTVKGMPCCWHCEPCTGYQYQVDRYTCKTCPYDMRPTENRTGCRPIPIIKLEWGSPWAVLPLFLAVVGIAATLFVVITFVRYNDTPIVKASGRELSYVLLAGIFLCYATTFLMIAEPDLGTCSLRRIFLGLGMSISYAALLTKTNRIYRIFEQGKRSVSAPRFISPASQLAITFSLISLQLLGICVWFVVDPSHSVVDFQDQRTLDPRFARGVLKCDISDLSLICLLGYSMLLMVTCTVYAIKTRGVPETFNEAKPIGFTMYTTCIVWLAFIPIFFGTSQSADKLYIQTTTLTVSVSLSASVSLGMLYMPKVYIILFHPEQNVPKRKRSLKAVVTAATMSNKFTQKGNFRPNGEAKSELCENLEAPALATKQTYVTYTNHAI

[15] = target: T2, Dual specificity protein phosphatase 3; experiment: VHR1 inhibitor Ki determination, SAR follow-up, biochemical, colorimetric (AID 2004)
[16] = target: Cyclin-dependent kinase 5/CDK5 activator 1 (Homo sapiens, UniProt Q00535); experiment: CDK5/p35 kinase inhibitors, dose response, biochemical, cherry-picked samples, set 2 (AID 504545)
[17] = Counterscreen for IDE inhibitors: Luminescence-based cell-based high throughput dose response assay to identify compounds that are cytotoxic to HEK cells. [Related pubchem assays: 434962 (Primary screen (IDE inhibitors in singlicate)), 449730 (Counterscreen (Cytotoxicity in triplicate)), 435028 (Confirmation (IDE inhibitors in triplicate)) …; assay type: functional; details: HEK293
Insulin-degrading enzyme = Insulin-degrading enzyme (Homo sapiens, UniProt P14735); experiment: Dose Response: Fluorescence polarization-based cell-based high throughput dose response assay for inhibitors of insulin-degrading enzyme (IDE). [Related pubchem assays: 434962 (Primary screen (IDE inhibitors in singlicate)), 449730 (Counterscreen (Cytotoxicity in triplicate)), 435028 (Confirmation (IDE inhibitors in triplicate)), 434984 (Summary …; assay type: functional

Chain of Cytochrome P450 2C19 (P33261 whole entry): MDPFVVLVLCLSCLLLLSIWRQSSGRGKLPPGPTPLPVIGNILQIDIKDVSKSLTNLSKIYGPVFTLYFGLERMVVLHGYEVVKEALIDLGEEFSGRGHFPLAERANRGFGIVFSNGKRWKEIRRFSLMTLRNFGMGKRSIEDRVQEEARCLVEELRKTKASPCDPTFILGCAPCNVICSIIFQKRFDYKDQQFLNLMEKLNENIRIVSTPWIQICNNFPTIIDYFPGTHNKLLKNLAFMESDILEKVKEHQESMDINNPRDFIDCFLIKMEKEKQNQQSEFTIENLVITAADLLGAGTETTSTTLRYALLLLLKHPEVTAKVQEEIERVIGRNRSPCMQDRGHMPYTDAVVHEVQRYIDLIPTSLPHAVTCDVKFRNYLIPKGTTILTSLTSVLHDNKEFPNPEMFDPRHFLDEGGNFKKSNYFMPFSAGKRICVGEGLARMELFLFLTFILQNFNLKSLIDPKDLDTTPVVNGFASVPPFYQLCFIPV

SMILES: COc1ccc(N=Nc2n(C)c3ccccc3[n+]2C)cc1
EC50 [2]: > 55.7 µM (not active)
EC50 [3]: 0.738 µM (active)
EC50 [4]: > 55.7 µM (not active)
EC50 [5]: 0.631 µM (active)

SMILES: CCc1cc(-c2[nH]nc(C)c2Oc2ccc(C(C)C)cc2)c(O)cc1O
CC50 [6]: 15.9 µM (active)
AC50 [7]: 3.13 µM (active)
EC50 (Streptococcus): 4.99 µM (active)
Absolute IC50 (XBP1) (X-box-binding protein 1): < 10 µM
EC50 [8]: 2.28 µM (active)

SMILES: Cc1ccc(NC(=S)NNC(=O)c2ccccc2OC(F)F)cc1
IC50 [10]: > 100 µM (inactive)
IC50 [11]: > 100 µM (inactive)
IC50 [12]: > 100 µM (inactive)

SMILES: COc1ccc(-c2cc(C(=O)NCCc3ccccc3)c3ccccc3n2)c(OC)c1
Ki [15]: 27.9 µM (inactive)

SMILES: Cc1ccc(-n2nc(C)c3c2C(Br)C(C)(C)CC3=O)nc1 (stereo not drawn)
AC50 [16]: 43.3 µM (active)

SMILES: CCN(CC)c1ccc(C=C(c2nnnn2-c2ccccc2)c2nnnn2-c2ccccc2)cc1
IC50 [17]: > 55.7 µM (not active)
IC50 (Insulin-degrading enzyme): > 55.9 µM (not active)

More lines, now with the values ahead:

AC50 (Cytochrome P450 2C19): 39.8 µM (inconclusive)
AC50 (Cytochrome P450 2C9): 25.1 µM (inconclusive)
SMILES: CC(C)[C@@H](CC(=O)N[C@@H]1CCNC[C@H]1C(=O)N[C@H](CC(=O)N[C@@H](CCC(=O)O)CC(=O)O)Cc1ccccc1)NC(=O)C[C@H](CO)NC(=O)[C@@H]1CNCC[C@H]1N

EC50 [1]: > 49.7 µM (inactive)
EC50 (Wee1-like protein kinase): > 49.7 µM (inactive)
SMILES: Cc1cccc(NC(=O)CCCOc2cc(=O)n(C)c3ccccc23)n1

IC50 [9]: > 20 µM (inactive)
SMILES: N#C/C(=C\c1cccn1S(=O)(=O)c1ccccc1)C(=O)c1ccccc1

EC50 [13]: 7.17 µM (active)
EC50 [14]: 9.66 µM (active)
SMILES: O=C(Nc1ccc2c(c1)OCO2)c1ccccn1
